Measurements reported in ChEMBL document CHEMBL5136992, “Fascinating Transformation of SAM-Competitive Protein Methyltransferase Inhibitors from Nucleoside Analogues to Non-Nucleoside Analogues” (J Med Chem, 2022).
In brackets after ≈: the same amount, converted by molar mass.

Experiments:
[1] = biological target: T1, Histone-lysine N-methyltransferase EZH2 (Homo sapiens, UniProt Q15910, Y641N); assay: Binding affinity to EZH2 Y641N mutant (unknown origin) assessed as inhibition constant
[2] = Aqueous solubility of the compound; assay type: physicochemical; settings: buffer
[3] = biological target: T2, Histone-lysine N-methyltransferase, H3 lysine-79 specific (Homo sapiens, UniProt Q8TEK3); assay: Inhibition of DOT1L (unknown origin)
T2 sequence (Q8TEK3 whole entry): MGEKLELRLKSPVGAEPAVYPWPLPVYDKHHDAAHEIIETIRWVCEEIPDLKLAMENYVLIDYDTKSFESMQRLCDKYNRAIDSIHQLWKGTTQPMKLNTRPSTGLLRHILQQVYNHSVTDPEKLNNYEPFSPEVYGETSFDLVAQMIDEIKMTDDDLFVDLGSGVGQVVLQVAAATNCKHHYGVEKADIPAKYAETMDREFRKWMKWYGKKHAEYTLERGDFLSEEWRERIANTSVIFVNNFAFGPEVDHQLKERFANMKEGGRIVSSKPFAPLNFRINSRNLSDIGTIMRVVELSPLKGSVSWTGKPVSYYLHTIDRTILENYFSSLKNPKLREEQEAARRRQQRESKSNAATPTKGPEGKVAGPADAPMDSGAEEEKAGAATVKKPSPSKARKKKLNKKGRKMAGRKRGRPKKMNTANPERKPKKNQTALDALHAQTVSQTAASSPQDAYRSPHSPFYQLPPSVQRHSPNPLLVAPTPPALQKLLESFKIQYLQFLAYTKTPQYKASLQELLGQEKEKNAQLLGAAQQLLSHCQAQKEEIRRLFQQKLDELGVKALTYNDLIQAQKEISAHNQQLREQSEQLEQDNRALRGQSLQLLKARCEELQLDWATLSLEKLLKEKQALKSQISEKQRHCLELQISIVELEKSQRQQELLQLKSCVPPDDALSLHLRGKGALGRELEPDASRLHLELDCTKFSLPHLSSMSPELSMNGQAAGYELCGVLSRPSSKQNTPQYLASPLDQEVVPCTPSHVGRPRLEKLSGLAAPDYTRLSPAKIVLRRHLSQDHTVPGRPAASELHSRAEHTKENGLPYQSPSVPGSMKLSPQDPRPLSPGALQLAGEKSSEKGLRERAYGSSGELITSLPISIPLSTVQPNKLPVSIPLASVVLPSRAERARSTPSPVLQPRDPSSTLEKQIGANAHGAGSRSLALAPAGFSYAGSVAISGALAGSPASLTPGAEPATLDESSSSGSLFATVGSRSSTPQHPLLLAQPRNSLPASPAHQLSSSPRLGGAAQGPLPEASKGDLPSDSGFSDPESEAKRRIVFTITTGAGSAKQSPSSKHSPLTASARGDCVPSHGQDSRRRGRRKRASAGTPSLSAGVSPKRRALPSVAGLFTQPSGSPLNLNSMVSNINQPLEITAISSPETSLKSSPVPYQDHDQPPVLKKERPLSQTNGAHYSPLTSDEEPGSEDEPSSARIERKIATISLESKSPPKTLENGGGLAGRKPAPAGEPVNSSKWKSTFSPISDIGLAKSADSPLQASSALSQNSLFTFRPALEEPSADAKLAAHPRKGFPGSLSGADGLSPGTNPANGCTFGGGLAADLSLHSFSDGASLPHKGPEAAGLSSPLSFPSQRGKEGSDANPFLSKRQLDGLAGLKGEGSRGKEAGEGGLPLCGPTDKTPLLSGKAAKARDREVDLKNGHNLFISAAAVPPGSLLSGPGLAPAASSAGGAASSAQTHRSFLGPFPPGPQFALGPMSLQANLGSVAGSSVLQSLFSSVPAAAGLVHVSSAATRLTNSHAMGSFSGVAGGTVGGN

[4] = biological target: T2, Histone-lysine N-methyltransferase, H3 lysine-79 specific; assay: Inhibition of human recombinant DOT1L by methyltransferase-Glo Bioluminescent assay
[5] = biological target: T3, Histone-lysine N-methyltransferase SETD7 (Homo sapiens, UniProt Q8WTS6); assay: Inhibition of SET7 (unknown origin)
T3 sequence (Q8WTS6 whole entry): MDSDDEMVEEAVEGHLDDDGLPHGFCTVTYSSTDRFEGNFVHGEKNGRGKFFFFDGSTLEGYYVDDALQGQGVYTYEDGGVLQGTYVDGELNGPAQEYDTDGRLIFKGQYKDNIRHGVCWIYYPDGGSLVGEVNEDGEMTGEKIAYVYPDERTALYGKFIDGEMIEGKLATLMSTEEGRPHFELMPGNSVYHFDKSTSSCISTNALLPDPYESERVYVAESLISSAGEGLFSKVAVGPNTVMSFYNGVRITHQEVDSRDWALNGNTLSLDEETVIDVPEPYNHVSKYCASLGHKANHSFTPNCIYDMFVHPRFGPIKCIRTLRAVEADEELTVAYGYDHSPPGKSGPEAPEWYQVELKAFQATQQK

[6] = biological target: T4, Histone-lysine N-methyltransferase EHMT1 (Homo sapiens, UniProt Q9H9B1); assay: Inhibition of EHMT1 (unknown origin)
T4 sequence (Q9H9B1 whole entry): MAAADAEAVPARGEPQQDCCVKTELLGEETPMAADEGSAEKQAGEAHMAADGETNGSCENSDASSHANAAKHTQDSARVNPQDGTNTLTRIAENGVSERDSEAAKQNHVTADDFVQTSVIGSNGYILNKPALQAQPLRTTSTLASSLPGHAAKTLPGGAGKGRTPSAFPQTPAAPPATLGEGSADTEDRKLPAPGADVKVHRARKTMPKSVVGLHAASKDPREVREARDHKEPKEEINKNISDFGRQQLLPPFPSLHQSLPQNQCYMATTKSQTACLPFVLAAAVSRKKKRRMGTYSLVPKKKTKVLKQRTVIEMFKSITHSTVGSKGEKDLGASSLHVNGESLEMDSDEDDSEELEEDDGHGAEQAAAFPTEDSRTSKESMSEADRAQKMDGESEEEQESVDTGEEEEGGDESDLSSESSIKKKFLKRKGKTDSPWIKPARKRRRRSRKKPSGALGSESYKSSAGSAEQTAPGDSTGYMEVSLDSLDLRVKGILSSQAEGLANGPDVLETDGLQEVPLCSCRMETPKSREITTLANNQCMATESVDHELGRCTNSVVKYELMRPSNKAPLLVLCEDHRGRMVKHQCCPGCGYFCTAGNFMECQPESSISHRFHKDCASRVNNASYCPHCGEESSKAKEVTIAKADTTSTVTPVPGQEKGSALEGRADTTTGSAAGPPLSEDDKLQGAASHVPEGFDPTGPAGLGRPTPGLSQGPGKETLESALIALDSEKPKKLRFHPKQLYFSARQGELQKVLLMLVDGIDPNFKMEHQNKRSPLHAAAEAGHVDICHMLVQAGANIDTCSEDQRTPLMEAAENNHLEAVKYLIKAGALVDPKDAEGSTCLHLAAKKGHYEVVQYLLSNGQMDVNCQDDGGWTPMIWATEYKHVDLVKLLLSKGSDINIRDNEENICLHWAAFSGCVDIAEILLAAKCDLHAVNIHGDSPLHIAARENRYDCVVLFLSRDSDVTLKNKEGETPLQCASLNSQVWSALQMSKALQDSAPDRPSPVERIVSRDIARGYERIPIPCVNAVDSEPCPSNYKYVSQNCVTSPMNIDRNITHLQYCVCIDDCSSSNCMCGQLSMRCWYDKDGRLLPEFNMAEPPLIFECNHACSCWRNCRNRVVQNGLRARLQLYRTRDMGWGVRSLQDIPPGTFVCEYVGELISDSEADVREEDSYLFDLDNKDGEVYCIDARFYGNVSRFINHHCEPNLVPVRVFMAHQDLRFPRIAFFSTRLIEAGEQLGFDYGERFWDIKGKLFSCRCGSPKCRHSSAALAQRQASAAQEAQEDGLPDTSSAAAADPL

[7] = biological target: Protein arginine N-methyltransferase 5 (Homo sapiens, UniProt O14744); assay: Inhibition of PRMT5 (unknown origin)
Protein arginine N-methyltransferase 5, sequence (O14744 whole entry): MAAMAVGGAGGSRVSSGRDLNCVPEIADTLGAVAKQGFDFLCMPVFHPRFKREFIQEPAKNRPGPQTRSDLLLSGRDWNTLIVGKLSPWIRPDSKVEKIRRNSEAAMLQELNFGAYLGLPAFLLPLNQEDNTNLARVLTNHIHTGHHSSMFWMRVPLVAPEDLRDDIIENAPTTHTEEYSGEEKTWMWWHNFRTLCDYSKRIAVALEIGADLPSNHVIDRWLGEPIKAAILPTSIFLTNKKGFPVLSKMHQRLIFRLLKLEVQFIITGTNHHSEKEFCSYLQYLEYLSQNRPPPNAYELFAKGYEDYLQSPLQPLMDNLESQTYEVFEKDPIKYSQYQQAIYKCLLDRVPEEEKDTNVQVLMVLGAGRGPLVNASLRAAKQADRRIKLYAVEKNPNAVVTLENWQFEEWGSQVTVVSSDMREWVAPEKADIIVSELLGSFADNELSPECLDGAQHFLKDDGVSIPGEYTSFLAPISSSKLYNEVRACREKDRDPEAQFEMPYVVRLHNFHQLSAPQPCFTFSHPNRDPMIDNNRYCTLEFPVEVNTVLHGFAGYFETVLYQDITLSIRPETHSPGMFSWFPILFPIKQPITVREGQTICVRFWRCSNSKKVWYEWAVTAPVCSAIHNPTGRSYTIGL

[8] = biological target: T1, Histone-lysine N-methyltransferase EZH2; assay: Inhibition of EZH2 Y641N mutant (unknown origin)
[9] = biological target: T5, Histone-lysine N-methyltransferase EZH2 (Homo sapiens, UniProt Q15910); assay: Inhibition of wild type EZH2 (unknown origin)
Target sequence in this assay (Q15910 whole entry): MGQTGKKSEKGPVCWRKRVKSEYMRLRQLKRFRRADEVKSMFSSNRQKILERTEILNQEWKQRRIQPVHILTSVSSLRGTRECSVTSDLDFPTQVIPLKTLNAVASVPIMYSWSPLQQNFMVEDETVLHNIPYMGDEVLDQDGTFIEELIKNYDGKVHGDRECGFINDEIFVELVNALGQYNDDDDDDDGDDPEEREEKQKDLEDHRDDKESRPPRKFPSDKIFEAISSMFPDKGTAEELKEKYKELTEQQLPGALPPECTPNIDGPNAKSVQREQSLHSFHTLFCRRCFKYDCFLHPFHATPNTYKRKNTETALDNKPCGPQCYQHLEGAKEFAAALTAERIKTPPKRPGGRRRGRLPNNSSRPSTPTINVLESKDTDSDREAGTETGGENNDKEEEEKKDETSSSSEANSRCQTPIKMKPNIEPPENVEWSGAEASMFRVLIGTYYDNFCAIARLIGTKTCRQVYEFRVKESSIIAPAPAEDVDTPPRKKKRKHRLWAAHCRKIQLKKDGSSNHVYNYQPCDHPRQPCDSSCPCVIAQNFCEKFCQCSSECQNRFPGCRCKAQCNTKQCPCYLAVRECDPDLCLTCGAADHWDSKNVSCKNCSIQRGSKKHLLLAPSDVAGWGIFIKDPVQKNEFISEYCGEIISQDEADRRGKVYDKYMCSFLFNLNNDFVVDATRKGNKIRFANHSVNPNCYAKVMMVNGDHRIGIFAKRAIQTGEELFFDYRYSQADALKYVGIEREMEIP

[10] = biological target: T5, Histone-lysine N-methyltransferase EZH2; assay: Inhibition of EZH2 (unknown origin) assessed as residence time
Target sequence in this assay (Q15910 whole entry, looked up): as the sequence (Q15910 whole entry) above

[11] = biological target: T5, Histone-lysine N-methyltransferase EZH2; assay: Inhibition of EZH2 (unknown origin)
Target sequence in this assay (Q15910 whole entry): as above

[12] = biological target: T6, Histone-lysine N-methyltransferase EHMT2 (Homo sapiens, UniProt Q96KQ7); assay: Inhibition of G9a (unknown origin)
T6 sequence (Q96KQ7 whole entry): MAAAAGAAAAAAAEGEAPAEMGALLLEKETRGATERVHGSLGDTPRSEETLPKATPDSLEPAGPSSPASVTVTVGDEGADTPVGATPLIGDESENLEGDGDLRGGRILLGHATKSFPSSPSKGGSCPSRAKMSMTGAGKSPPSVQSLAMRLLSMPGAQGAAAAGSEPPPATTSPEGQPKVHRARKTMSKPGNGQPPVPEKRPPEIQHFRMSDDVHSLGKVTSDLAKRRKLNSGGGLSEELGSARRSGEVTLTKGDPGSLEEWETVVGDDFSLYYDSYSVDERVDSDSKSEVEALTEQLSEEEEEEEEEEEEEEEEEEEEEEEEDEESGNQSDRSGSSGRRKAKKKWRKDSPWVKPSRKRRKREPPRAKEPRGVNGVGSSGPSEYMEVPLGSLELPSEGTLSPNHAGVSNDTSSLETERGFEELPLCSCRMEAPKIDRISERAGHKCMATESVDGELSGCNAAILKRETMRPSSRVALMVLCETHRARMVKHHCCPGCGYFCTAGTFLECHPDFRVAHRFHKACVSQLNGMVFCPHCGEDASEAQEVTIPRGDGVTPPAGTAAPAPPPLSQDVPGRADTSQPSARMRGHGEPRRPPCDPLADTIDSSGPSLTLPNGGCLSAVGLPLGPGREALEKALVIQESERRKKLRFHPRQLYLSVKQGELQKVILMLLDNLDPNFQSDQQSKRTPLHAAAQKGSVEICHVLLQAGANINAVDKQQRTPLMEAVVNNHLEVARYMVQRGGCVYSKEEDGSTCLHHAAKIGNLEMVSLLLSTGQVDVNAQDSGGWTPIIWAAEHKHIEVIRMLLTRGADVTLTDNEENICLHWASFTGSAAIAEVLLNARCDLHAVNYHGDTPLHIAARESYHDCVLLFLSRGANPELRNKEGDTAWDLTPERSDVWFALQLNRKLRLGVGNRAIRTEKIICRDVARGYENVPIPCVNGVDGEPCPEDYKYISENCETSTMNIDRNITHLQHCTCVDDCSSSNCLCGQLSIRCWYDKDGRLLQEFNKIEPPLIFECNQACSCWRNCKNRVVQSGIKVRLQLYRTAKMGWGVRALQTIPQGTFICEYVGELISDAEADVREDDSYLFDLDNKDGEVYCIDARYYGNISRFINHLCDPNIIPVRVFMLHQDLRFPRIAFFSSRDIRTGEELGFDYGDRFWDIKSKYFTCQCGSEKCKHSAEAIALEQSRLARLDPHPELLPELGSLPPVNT

[13] = biological target: T7, Histone-arginine methyltransferase CARM1 (Homo sapiens, UniProt Q86X55); assay: Inhibition of PRMT4 (unknown origin)
T7 sequence (Q86X55 whole entry): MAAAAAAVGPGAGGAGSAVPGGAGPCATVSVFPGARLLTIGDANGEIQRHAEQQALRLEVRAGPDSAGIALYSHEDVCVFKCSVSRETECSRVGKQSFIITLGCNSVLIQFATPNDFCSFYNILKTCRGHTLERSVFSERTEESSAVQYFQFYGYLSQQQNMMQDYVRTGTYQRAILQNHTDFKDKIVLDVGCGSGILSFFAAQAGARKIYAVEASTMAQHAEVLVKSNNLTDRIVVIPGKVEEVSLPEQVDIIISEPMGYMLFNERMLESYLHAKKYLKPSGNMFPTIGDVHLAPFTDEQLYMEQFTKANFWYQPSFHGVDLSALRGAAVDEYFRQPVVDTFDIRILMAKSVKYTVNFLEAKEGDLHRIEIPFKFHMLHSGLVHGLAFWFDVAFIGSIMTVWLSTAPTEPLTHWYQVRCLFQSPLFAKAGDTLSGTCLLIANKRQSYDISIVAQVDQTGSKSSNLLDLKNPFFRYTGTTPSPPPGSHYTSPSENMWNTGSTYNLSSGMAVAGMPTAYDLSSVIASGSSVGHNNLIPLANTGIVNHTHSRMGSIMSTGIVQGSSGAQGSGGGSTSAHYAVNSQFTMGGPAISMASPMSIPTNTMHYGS

cells = settings: Homo sapiens, MCF-10A
Description: Inhibition of methylation of H3K79 in human MCF-10A cells by fluorescence assay

[14] = biological target: T5, Histone-lysine N-methyltransferase EZH2; assay: Binding affinity to EZH2 (unknown origin) assessed as inhibition constant
Target sequence in this assay (Q15910 whole entry): as the sequence (Q15910 whole entry) above

[15] = biological target: Protein arginine N-methyltransferase 1 (Homo sapiens, UniProt Q99873); assay: Inhibition of PRMT1 (unknown origin)
Protein arginine N-methyltransferase 1, sequence (Q99873 whole entry): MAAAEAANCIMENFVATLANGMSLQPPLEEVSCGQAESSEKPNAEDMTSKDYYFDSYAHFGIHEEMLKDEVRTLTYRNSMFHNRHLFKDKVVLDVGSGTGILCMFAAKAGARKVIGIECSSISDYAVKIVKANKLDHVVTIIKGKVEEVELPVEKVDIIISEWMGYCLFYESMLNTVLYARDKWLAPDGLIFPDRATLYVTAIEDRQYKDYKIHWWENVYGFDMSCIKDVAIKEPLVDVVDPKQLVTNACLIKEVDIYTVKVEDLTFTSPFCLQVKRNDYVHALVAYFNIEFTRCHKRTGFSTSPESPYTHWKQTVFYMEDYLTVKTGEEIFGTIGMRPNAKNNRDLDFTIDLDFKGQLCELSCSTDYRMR

MV4-11 = assay: Antiproliferative activity against human MV4-11 cells; assay type: functional, cell-based

T1 sequence (Q15910 whole entry Y641N): as the sequence (Q15910 whole entry) above, with Y641N counted along it

Compound: CO[C@@H](c1cc(Cl)c2c(c1Cl)C(=O)N(Cc1c(C)cc(C)[nH]c1=O)CC2)C1COC1
- Ki [1]: < 0.1 nM
- solubility [2]: 315 µg/mL (≈ 698 µM)

Compound: NC(=O)CNC(=O)Nc1ccc2ccn(-c3ccccc3Cl)c2c1
- IC50 [3]: 9000 nM

Compound: COc1cc([C@H]2Oc3c(O)cc(CCCO)cc3[C@@H]2CO)ccc1O[C@@H]1O[C@@H](C)[C@@H](O)[C@@H](O)[C@H]1O
- IC50 [4]: 399 nM

Compound: Nc1ncnc2c1ncn2[C@H]1O[C@@H](C[C@H](N)CC[C@H](N)C(=O)O)[C@H](O)[C@@H]1O
- IC50 [5]: 2500 nM
- IC50 [6]: 513000 nM
- IC50 [3]: 26000 nM

Compound: CN(CCCNC(=O)CNC(=O)Nc1ccc2sc(Cl)c(-c3cccnc3)c2c1)[C@@H]1CCCC(c2ncnc3[nH]ccc23)C1 (some centres not stated)
- IC50 [3]: < 100 nM

Compound: Nc1ncnc2c1ccn2[C@H]1O[C@@H]([C@H](O)c2ccccc2)[C@H](O)[C@@H]1O
- IC50 [7]: 9.5 nM

Compound: CCC(CC)n1ncc2c(C(=O)NCc3c(C)cc(C)[nH]c3=O)cc(C#N)cc21
- IC50 [8]: 13 nM
- IC50 [9]: 15 nM

Compound: CSc1cc(C)[nH]c(=O)c1CNC(=O)c1c(C)n([C@@H](C)[C@H]2CC[C@H](N3CC(OC4CC4)C3)CC2)c2ccccc12
- TIME [10]: 57 h
- IC50 [11]: 0.057 nM

Compound: CCNC(=O)NCCCSC[C@@H]1O[C@H](n2cnc3c(N)ncnc32)[C@@H](O)[C@H]1O
- IC50 [7]: 6000 nM

Compound: COc1cccc(C(=O)NCc2c(C)cc(C)[nH]c2=O)c1Cl
- IC50 [11]: 7.2 nM

Compound: Nc1ncnc2c1ncn2[C@H]1O[C@@H](CN(CCI)CCC[C@H](N)C(=O)O)[C@H](O)[C@@H]1O
- IC50 [12]: 1800 nM
- IC50 [13]: 1100 nM

Compound: Cc1cc(C)c(CN2CCc3c(Cl)cc(-c4c(C)noc4C)c(Cl)c3C2=O)c(=O)[nH]1
- solubility [2]: 2 µg/mL (≈ 4.48 µM)
- IC50 [11]: < 5 nM

Compound: NCCCN(CCCNc1ccccn1)C[C@@H]1O[C@H](n2cnc3c(N)ncnc32)[C@@H](O)[C@H]1O
- IC50 [13]: 90 nM

Compound: Cc1cc(C)c(CNC(=O)c2c(C)n([C@H](C)C3CCN(CC(F)(F)F)CC3)c3ccccc23)c(=O)[nH]1
- IC50 [11]: 22 nM

Compound: CNc1ccnc(Nc2ccc3sc(Cl)c(-c4cc(-c5c(C)ncn(C)c5=O)cnc4Cl)c3c2)n1
- IC50 (cells): 23 nM
- IC50 [3]: 1400 nM

Compound: CCC(CC)n1ncc2c(C(=O)NCc3c(C)cc(C)[nH]c3=O)cc(C3CC3)nc21
- IC50 [11]: 149 nM

Compound: CNc1ccnc(Nc2ccc3cc(C)n(-c4ccccc4Oc4cnc5c(c4)ncn5C)c3c2)n1
- IC50 (cells): 16 nM

Compound: CC(C)N(CCCNC(=O)Nc1ccc(C(C)(C)C)cc1)C[C@@H]1O[C@H](n2cc(Br)c3c(N)ncnc32)[C@@H](O)[C@H]1O
- IC50 (cells): 8.8 nM

Compound: Cc1coc2c1C(=O)C(=O)c1c-2ccc2c1CC[C@@H](O)[C@]2(C)O
- Ki [14]: 194 nM
- IC50 [11]: 550 nM

Compound: Nc1ncnc2c1ncn2[C@H]1O[C@@H](CSCC[C@H](N)C(=O)NCc2cc(-c3ccccc3)[nH]n2)[C@H](O)[C@@H]1O
- IC50 [11]: 270 nM

Compound: Nc1ncnc2ccc(N(CC#CC(O)c3nccn3CCO)c3c(Cl)cccc3Cl)cc12 (configuration not stated)
- IC50 [3]: 14000 nM

Compound: CC(C)(C)c1ccc(CC(=O)c2ncn(CC(=O)NCCn3ccc4c(N)ncnc43)n2)cc1
- IC50 [3]: 1000 nM

Compound: CCCc1cc(C)[nH]c(=O)c1CNC(=O)c1cc(-c2ccc(N3CCN(C(C)C)CC3)nc2)cc2c1cnn2C(C)C
- IC50 [11]: < 10 nM

Compound: N=C(N)NCCCN(CCCN)C[C@@H]1O[C@H](n2cnc3c(N)ncnc32)[C@@H](O)[C@H]1O
- IC50 [15]: 7200 nM
- IC50 [13]: 2300 nM

Compound: CCCCCCNCCN(CC[C@H](N)C(=O)O)C[C@@H]1O[C@H](n2cnc3c(N)ncnc32)[C@@H](O)[C@H]1O
- IC50 [5]: > 10000 nM

Compound: Cc1cc(Nc2ccc3nc(C)cc(N)c3c2)nc(Nc2ccc3nc(C)cc(N)c3c2)n1
- IC50 (MV4-11): 37100 nM

Compound: Nc1cccc(CCC[C@@H]2C[C@H](n3ccc4c(N)ncnc43)[C@@H](O)[C@H]2O)n1
- IC50 [7]: 0.4 nM
